Data taken from ChEMBL document CHEMBL1132008, “Isoxazoline GPIIb/IIIa antagonists bearing a phosphoramidate” (Bioorg Med Chem Lett, 1999).

Columns and labels:
[1] = biological target: T1, Integrin alpha-IIb/beta-3 (Homo sapiens, UniProt P05106+P08514); experiment: Affinity for purified human platelet glycoprotein alpha IIb beta3 integrin receptor in ELISA
[2] = biological target: T1, Integrin alpha-IIb/beta-3; experiment: Inhibition of fibrinogen (Fg) interaction with GPIIb/IIIa in gel filtered platelets; assay type: functional
[3] = Inhibition of platelet aggregation in citreated human platelet rich plasma (PRP)

T1 sequence (P05106 27-788 limits assumed): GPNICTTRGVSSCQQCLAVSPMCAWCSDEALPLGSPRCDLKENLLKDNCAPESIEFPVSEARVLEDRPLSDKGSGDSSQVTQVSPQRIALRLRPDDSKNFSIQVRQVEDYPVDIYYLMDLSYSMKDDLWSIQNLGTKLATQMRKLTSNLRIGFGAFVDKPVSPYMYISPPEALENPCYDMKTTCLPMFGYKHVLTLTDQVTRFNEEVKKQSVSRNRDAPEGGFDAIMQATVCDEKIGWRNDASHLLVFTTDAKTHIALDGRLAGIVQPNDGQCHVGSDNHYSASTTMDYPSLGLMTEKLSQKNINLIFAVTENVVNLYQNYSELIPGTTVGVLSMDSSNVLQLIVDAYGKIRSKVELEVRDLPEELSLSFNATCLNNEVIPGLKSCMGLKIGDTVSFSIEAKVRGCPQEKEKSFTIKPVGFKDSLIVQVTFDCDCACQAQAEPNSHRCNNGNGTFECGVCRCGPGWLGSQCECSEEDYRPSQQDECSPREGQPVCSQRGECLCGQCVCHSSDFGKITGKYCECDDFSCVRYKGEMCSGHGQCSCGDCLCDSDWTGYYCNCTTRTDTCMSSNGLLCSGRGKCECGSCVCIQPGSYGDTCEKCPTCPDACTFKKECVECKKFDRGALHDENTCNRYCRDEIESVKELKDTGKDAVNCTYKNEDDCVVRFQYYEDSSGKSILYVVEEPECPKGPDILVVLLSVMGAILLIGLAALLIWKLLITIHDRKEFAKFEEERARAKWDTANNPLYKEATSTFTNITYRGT
T1 sequence (P08514 32-887 limits assumed): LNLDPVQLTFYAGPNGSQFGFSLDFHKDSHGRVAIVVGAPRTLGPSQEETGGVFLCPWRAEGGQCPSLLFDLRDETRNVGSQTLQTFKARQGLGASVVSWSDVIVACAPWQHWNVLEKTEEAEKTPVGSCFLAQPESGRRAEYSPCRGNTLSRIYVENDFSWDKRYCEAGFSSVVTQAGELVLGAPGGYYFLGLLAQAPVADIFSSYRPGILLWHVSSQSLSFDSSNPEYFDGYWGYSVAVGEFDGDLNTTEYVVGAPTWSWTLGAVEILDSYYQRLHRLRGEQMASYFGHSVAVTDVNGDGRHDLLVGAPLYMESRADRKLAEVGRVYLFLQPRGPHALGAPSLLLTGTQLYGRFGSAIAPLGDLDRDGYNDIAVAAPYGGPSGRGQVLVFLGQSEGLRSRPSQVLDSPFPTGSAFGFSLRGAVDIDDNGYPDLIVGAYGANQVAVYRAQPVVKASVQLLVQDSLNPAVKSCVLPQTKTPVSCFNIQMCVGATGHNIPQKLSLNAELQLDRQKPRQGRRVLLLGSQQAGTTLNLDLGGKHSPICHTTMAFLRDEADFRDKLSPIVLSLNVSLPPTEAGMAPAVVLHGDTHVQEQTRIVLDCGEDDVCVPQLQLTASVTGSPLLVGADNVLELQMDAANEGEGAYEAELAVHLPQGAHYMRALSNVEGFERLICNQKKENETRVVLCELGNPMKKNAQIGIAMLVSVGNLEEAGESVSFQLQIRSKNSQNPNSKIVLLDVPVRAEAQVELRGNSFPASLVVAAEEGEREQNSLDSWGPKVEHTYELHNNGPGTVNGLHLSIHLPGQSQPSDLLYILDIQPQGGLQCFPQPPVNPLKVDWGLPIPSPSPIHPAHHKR
T1 sequence (P08514 891-1039 limits assumed): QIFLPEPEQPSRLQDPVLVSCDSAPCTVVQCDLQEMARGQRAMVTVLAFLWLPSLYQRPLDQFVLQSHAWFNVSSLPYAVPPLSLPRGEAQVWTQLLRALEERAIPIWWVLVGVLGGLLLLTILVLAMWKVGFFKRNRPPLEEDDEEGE

Row | SMILES | IC50 [1] | IC50 [2] | IC50 [3]
1 | N=C(N)c1ccc(C2=NOC(CC(=O)NCC(NP(=O)(O)O)C(=O)O)C2)cc1 (stereo not given) | 2.6 nM | 229 nM | 
2 | COP(=O)(NC(CNC(=O)CC1CC(c2ccc(C(=N)N)cc2)=NO1)C(=O)O)OC (stereo not given) | 0.55 nM | 54 nM | 
3 | N=C(N)c1ccc(C2=NOC(CC(=O)NCCC(=O)O)C2)cc1 (stereo not given) |  | 140 nM | 
4 | CCOP(=O)(NC(CNC(=O)CC1CC(c2ccc(C(=N)N)cc2)=NO1)C(=O)O)OCC (stereo not given) | 1.7 nM | 102 nM | 

Continued, values first:

Row | IC50 [1] | IC50 [2] | IC50 [3] | SMILES
5 | 0.86 nM | 73 nM |  | CC(C)OP(=O)(NC(CNC(=O)CC1CC(c2ccc(C(=N)N)cc2)=NO1)C(=O)O)OC(C)C (stereo not given)
6 | 1.2 nM | 55 nM |  | CCCCOP(=O)(NC(CNC(=O)CC1CC(c2ccc(C(=N)N)cc2)=NO1)C(=O)O)OCCCC (stereo not given)
7 | 1.5 nM | 46 nM |  | C=CCOP(=O)(NC(CNC(=O)CC1CC(c2ccc(C(=N)N)cc2)=NO1)C(=O)O)OCC=C (stereo not given)
8 |  | 21 nM | 50 nM | CCCCOC(=O)N[C@@H](CNC(=O)C[C@H]1CC(c2ccc(C(=N)N)cc2)=NO1)C(=O)O
